The values below are quoted from earlier work in US9532968B1, “Fumarate compounds, pharmaceutical compositions thereof, and methods of use” (priority 2015, dated 2017).

On to `COC(=O)/C=C/C(=O)OC` [DMF, dimethylfumarate], for which the aqueous solubility entry is listed as “poor”.
